This passage reports Ki results from patent publication US6504052B1, “Excitatory amino acid receptor modulators” (Eli Lilly and Company, priority 1999, dated 2003).

Broadly, the Ki is a dissociation constant, usually derived from enzyme kinetics or from competition with a known ligand.

The structures appear in SMILES notation.

In the assay the target is T1, mGluR2 (Homo sapiens, UniProt Q14416).
T1 construct: expressed in transfected cells
As to the kind of experiment: [3H]LY341495 binding displacement at mGluR2. The following applies: radioligand [3H]LY341495, cells expressing human mGluR subtypes, read-out: Ki for reversal of [3 H] LY341495 binding. From the text: (D. D. Schoepp, et al., Neuropharmacol., 1996, 35, 1661-1672 and 1997, 36, 111).
(LY341495 is described in Ornstein et al., J. Med. Chem., 1998, 41, 346-357 and J. Med. Chem., 1998, 41, 358 to 378).

T1 sequence (Q14416 19-872): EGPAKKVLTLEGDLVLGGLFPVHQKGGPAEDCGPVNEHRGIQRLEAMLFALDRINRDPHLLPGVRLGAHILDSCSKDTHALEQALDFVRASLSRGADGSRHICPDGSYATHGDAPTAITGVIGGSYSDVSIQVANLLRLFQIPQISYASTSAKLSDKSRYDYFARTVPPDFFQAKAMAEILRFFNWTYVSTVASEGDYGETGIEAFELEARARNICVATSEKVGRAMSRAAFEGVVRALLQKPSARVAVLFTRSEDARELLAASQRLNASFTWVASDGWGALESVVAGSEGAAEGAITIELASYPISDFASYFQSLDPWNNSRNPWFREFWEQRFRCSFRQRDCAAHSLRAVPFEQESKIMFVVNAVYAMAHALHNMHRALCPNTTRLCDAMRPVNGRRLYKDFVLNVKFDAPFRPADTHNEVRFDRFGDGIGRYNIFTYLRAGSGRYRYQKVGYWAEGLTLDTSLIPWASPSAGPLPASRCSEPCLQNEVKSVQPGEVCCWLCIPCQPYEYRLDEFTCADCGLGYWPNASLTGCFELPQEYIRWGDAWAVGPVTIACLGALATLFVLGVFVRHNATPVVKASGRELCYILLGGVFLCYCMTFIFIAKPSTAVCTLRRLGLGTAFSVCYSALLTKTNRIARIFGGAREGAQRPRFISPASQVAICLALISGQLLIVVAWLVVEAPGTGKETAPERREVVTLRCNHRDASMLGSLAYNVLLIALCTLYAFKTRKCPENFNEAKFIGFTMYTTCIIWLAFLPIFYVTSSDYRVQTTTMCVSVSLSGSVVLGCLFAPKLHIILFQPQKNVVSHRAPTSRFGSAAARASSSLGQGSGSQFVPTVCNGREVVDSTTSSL

Turning to `C[C@@H]1[C@H](C(=O)O)[C@H]1[C@H](N)C(=O)O` [(2S,1′S,2′S,3′S)-2′-carboxy-3′methylcyclopropylglycine], the Ki turned out to be 2640 nM.

Turning to `C[C@H]1[C@H](C(=O)O)[C@H]1[C@H](N)C(=O)O` [Example 1, (2S,1′S,2′S,3′R)-2-(3′-Methyl-2′-carboxycyclopropyl)glycine], the Ki came to 100 nM.
